The values below come from a melting point compilation (Tetko et al.).

As a reminder, the melting point is the temperature, or range, at which the solid turns liquid.

Structures are written as SMILES. A value given as a limit tells only on which side of the number the result lay.

`Cc1ccc(S(=O)(=O)N(CCC(=O)O)c2ccccc2)cc1` yielded a melting point of 145 to 147 °C.

Take `Cc1c(C(=O)O)[nH]c2c1C(=O)CC(C)(C)C2`: the melting point lay in the range of 206 to 208 °C.

In turn, `NCC(O)COc1cccc(C(F)(F)F)c1` (stereo not drawn) gave a melting point of 66 to 68 °C.

In the case of `Sc1n[nH]c(-c2cccnc2)n1`, the melting point fell in the range of 304 to 306 °C.

With `CC1CNc2ccccc2S1` (stereo not drawn), the melting point was in the range of 41 to 43 °C.

The compound `O=C(CCl)NCCc1cccs1` gave a melting point below 17 °C.

The compound `Cc1ccc2nc(NCc3ccccc3)sc2c1` showed a melting point of 175 to 177 °C.

Consider `Cc1ccc(Cl)cc1C(N)=O`, for which the melting point is 150 to 152 °C.

Take `COc1ccc(-c2nc(CC(=O)O)cs2)cc1OC`: the melting point was in the range of 162 to 164 °C.

As for `Fc1cc2ncc(Cl)nc2cc1F`, the melting point was 91 to 93 °C.

In the case of `NNc1ccc(S(=O)(=O)Nc2ccc(Cl)cc2)cc1[N+](=O)[O-]`, the melting point was in the range of 187 to 189 °C.

In turn, `c1cn2c(n1)CN(C1CCNCC1)CC2` showed a melting point of 63 to 65 °C.

In the case of `CCCCOc1ccc(-c2nnc(N)o2)cc1`, the melting point was 229 to 231 °C.

For `CC(=O)Nc1cc(C(=O)O)ccc1C`, the melting point lay within 277 to 279 °C.

As for `Cc1onc(CC(=O)O)c1C#N`, the melting point was in the range of 59 to 61 °C.

In turn, `C=CCOc1ccc(O)cc1` had a melting point of 36 to 38 °C.

The compound `NCCNS(=O)(=O)Cc1ccccc1` had a melting point of 88 to 90 °C.

Regarding `CC1CCCC(C(N)C(=O)O)C1` (stereo not drawn), the melting point was in the range of 301 to 303 °C.

`Cc1ccc(S(=O)(=O)N(C)C)cc1N` registered a melting point of 172 to 174 °C.

Regarding `O=C(O)CNC(=O)c1ccc(Cl)cc1`, the melting point lay in the range of 214 to 216 °C.

The compound `CS(=O)(=O)NCc1ccccn1` displayed a melting point of 88 to 90 °C.

With `COc1cc(OC)c(C(=O)NO)cc1OC`, the melting point lay in the range of 187 to 189 °C.

For the compound `CCOc1cc(C(=O)O)ccc1OCC(=O)OC`, the melting point was in the range of 129 to 131 °C.

In the case of `Cc1ccc(O)c(C(=O)Nc2nc(CC(=O)O)cs2)c1`, the melting point was in the range of 271 to 273 °C.

For the compound `O=S1(=O)Cc2ccccc2N1`, the melting point was in the range of 123 to 125 °C.

As to `O=Cc1c(Cl)c2ccccc2oc1=O`, the melting point was in the range of 113 to 115 °C.

The compound `O=C(Cc1nc(CCl)cs1)Nc1ccccc1` displayed a melting point of 115 to 117 °C.

Consider `O=C(O)c1ccc(-c2cc(Cl)cc(Cl)c2)s1`, for which the melting point lay within 190 to 195 °C.

As for `O=C(O)C1CCN(c2cccc(Cl)c2)C1=O` (stereo not drawn), the melting point lay in the range of 113 to 115 °C.

Compound `O=C(O)Cc1c[nH]c2ccc([N+](=O)[O-])cc12` displayed a melting point of 189 to 191 °C.

For the compound `NS(=O)(=O)Cc1ccccc1Cl`, the melting point was in the range of 104 to 106 °C.

For `Cc1nc(-c2ccc(N)cc2)co1`, the melting point lay in the range of 112 to 114 °C.

`CC1(c2ccc3ccccc3c2)NC(=O)NC1=O` (stereo not drawn) showed a melting point of 190 to 192 °C.

Regarding `COc1ccnc(NCC(=O)O)n1`, the melting point lay in the range of 190 to 192 °C.

In turn, `Nc1ccc(F)cc1-c1ccc(Cl)cc1` returned a melting point of 54 to 56 °C.

With `CNC(C)C(=O)O` (stereo not drawn), the melting point is 268 to 270 °C.

`CN(C)c1ccc(C2CC2C(=O)O)cc1` (stereo not drawn) had a melting point of 119 to 121 °C.

Compound `O=C(Nc1ccc(O)cc1)C1CC1` returned a melting point of 212 to 214 °C.

In the case of `CC(C)(C)NC(=O)N1CCCc2c(C(=O)O)cccc21`, the melting point was in the range of 134 to 136 °C.

`Cc1n[nH]c(C(F)(F)Cl)c1C(=O)O`: the melting point is 260 to 262 °C.

The compound `Nc1ccc(C(=O)NC2CCCC2)cc1` yielded a melting point of 141 to 143 °C.

`CCOC(=O)C(N)=NO` displayed a melting point of 94 to 96 °C.

Turning to `Nc1cccc(Oc2ccnc3ccccc23)c1`, the melting point fell in the range of 114 to 116 °C.

`CC(C(=O)OCc1ccccc1)S(N)(=O)=O` (stereo not drawn) registered a melting point of 83 to 85 °C.

Take `NCC(=O)Nc1ccc(F)cc1`: the melting point lay in the range of 85 to 87 °C.

Take `O=C(NCCO)c1ccc(O)cc1O`: the melting point lay within 163 to 165 °C.

In turn, `OC(Cn1cncn1)c1ccc(Cl)cc1` (stereo not drawn) displayed a melting point of 111 to 113 °C.

Compound `CS(=O)(=O)N1CCN(CCN)CC1` displayed a melting point of 10 to 12 °C.

`O=Cc1cnc(-c2ccsc2)s1`: the melting point was 107 to 109 °C.

In turn, `Cc1ccc(N)c(-c2nc(C3CC3)no2)c1` yielded a melting point of 87 to 89 °C.

`Nc1ccc(C=CC(=O)O)cn1` yielded a melting point of 189 to 191 °C.

In turn, `CC(=O)c1ccc(S(=O)(=O)NCc2ccc(F)cc2)cc1` showed a melting point of 149 to 151 °C.

For the compound `O=C(NC(C(=O)O)c1ccccc1)c1ccccc1` (stereo not drawn), the melting point lay in the range of 198 to 200 °C.

Compound `NC(=S)NCc1cccc(C(F)(F)F)c1` registered a melting point of 97 to 99 °C.

With `O=C(O)c1ccccc1NS(=O)(=O)c1ccc2[nH]c(=O)[nH]c2c1`, the melting point was 225 to 227 °C.

Take `Cc1c(NC(C)C(C)C)cccc1C(=O)O` (stereo not drawn): the melting point was 90 to 92 °C.

As for `COc1ccc(S(N)(=O)=O)c(N)c1`, the melting point fell in the range of 139 to 141 °C.

As for `CCc1ccc(C(C)CC(=O)O)cc1` (stereo not drawn), the melting point was in the range of 65 to 67 °C.

Turning to `CC1=NOC(=O)C1CCC(=O)O` (stereo not drawn), the melting point fell in the range of 139 to 141 °C.

For the compound `Nc1cccc(Cn2cnnc2)c1`, the melting point was 139 to 141 °C.

`CN(C)C(=O)COc1ccccc1C=O`: the melting point lay in the range of 89 to 91 °C.

In turn, `C/C(=N\O)c1ccc(-c2cccc(Br)c2)s1` yielded a melting point of 168 to 170 °C.

As for `CCN(CC)Cc1ccc(O)c2ncccc12`, the melting point was 60 to 62 °C.

`COC(=O)c1ccccc1CS(=O)(=O)Cl` displayed a melting point of 85 to 87 °C.

In the case of `Cc1csc(C2(O)C(=O)N(Cc3ccccc3)CC2C(=O)O)n1` (stereo not drawn), the melting point was 109 to 111 °C.

Regarding `Nc1oc2ccccc2c(=O)c1C=O`, the melting point is 249 to 251 °C.

In turn, `O=[N+]([O-])c1ccc(CCS(=O)(=O)Cl)cc1` had a melting point of 89 to 91 °C.

In turn, `O=C1NCCS1` gave a melting point of 51 to 53 °C.

In turn, `N#Cc1cccc(CNc2ccc3[nH]c(=O)[nH]c3c2)c1` showed a melting point of 261 to 263 °C.

Regarding `COc1cc(C=O)ccc1OS(=O)(=O)c1cc(C)ccc1C`, the melting point fell in the range of 82 to 84 °C.

Compound `NC(=S)COc1ccc(Cl)cc1` gave a melting point of 107 to 111 °C.

Compound `CCC(C)C(NC(N)=O)C(=O)O` (stereo not drawn) displayed a melting point of 205 to 207 °C.

`Nc1nc2c(s1)CCCCCC2`: the melting point was in the range of 202 to 204 °C.

As to `O=C(O)c1ccc(Cl)c(Cl)c1O`, the melting point lay in the range of 212 to 214 °C.

Compound `Cc1[nH]c2ccc(F)cc2c1C=O` returned a melting point of 215 to 217 °C.

Compound `Cc1ccc(N2C(=O)C=CC2=O)cc1` showed a melting point of 151 to 153 °C.

In turn, `CS(=O)c1ccc(N)cc1F` (stereo not drawn) showed a melting point of 109 to 111 °C.

Compound `CCOC(=O)c1ncsc1NC` registered a melting point of 92 to 94 °C.

Take `COc1ccc(S(N)(=O)=O)c(OC)c1C(=O)O`: the melting point lay within 151 to 153 °C.

In turn, `CC(C)(C)OC(=O)NC1(C#N)CCCC1` showed a melting point of 106 to 108 °C.

Consider `Cc1nc2ccccn2c1C(=O)NN`, for which the melting point fell in the range of 188 to 190 °C.

For the compound `O=C(O)c1ccccc1Sc1ccc(Br)cn1`, the melting point lay within 183 to 185 °C.

`O=C(CCl)NC(=O)c1ccccc1`: the melting point fell in the range of 157 to 159 °C.

Regarding `COc1ccc(C(C)=O)cc1Br`, the melting point lay within 82 to 84 °C.

`O=C1NCCc2ccc(F)cc21` had a melting point of 119 to 121 °C.

Turning to `CC(=O)c1ccc(OC2CCOCC2)cc1`, the melting point was in the range of 72 to 74 °C.

In turn, `Cn1c(S)nc2sccc2c1=O` registered a melting point of 317 to 319 °C.

Compound `Cc1csc(=O)n1CCCC(=O)O` yielded a melting point of 97 to 99 °C.

In turn, `N#CC1=C(N)CCC1` gave a melting point of 146 to 148 °C.

Compound `O=C1CCOc2c(F)cc(F)cc21` returned a melting point of 135 to 137 °C.

In turn, `CC(C)CNC(=O)C(C)Nc1cccc(Br)c1` (stereo not drawn) showed a melting point of 92 to 94 °C.

With `COc1ccc(-c2cc(C(=O)NN)[nH]n2)cc1`, the melting point fell in the range of 205 to 220 °C.

Consider `Cc1ccc(C(C)C)c(OCCC(=O)O)c1`, for which the melting point lay in the range of 93 to 95 °C.

Regarding `Cc1ccc(S(=O)(=O)NC(C)C)cc1C(=O)O`, the melting point fell in the range of 162 to 164 °C.

In turn, `COCCOc1c(N)cccc1Cl` showed a melting point of 56 to 58 °C.

With `CCCCN1C(=O)CCC(C(=O)O)C1c1ccccc1OC` (stereo not drawn), the melting point was 288 to 290 °C.

Take `CCOc1ccc(C(C)=O)cc1CCl`: the melting point lay within 80 to 82 °C.

`CC(=O)c1ccc2c(c1)CC(=O)N2` gave a melting point of 217 to 219 °C.

Compound `Cc1ncc(-c2ccccc2)cc1N` had a melting point of 139 to 141 °C.

The compound `CCNC(=O)NC(=O)C(C)Cl` (stereo not drawn) displayed a melting point of 126 to 128 °C.

In turn, `Cc1cc(Cl)c([N+](=O)[O-])cc1S(=O)(=O)Cl` registered a melting point of 116 to 118 °C.

`O=CCCc1nc2ccccc2o1` registered a melting point of 62 to 64 °C.

With `CCc1c(C(=O)O)cnn1-c1ccccc1`, the melting point was 159 to 161 °C.

`Nc1nc2cc(S(=O)(=O)N3CCCC3)ccc2o1` displayed a melting point of 240 to 242 °C.

On to `O=C(O)C=Cc1ccc(-n2cc(Br)cn2)c(F)c1`, for which the melting point lay in the range of 204 to 206 °C.

Consider `CCCn1c(C)nnc1S`, for which the melting point lay within 129 to 131 °C.

As for `CC(C)c1cccc(N2CC(C(=O)O)CC2=O)c1` (stereo not drawn), the melting point is 126 to 128 °C.

Turning to `Cc1cnoc1N`, the melting point lay in the range of 59 to 61 °C.

`Cc1ccc(Cn2c(N)cc(=O)[nH]c2=O)cc1`: the melting point fell in the range of 279 to 281 °C.

In the case of `O=C(O)c1nc(NCCc2ccccc2)ncc1Cl`, the melting point is 158 to 160 °C.

Turning to `COc1cc(CCC(=O)O)cc(OC)c1`, the melting point was 54 to 56 °C.

Take `Clc1cnc2nc(Cl)oc2c1`: the melting point was 68 to 70 °C.

Turning to `O=C(CCn1ccnc1)Nc1cccc(C(=O)O)c1`, the melting point fell in the range of 216 to 218 °C.

Compound `N#Cc1ccccc1CS(=O)(=O)Cl` returned a melting point of 85 to 87 °C.

Compound `Nc1ccn(Cc2ccccn2)n1` gave a melting point of 88 to 90 °C.

`CN1C(=O)CC(O)C1=O` (stereo not drawn) displayed a melting point of 82 to 87 °C.

Compound `Cc1cnn(-c2ccc(S(=O)(=O)Cl)cc2F)c1` showed a melting point of 99 to 101 °C.

Take `COC(=O)c1cc(S(N)(=O)=O)ccc1F`: the melting point was 97 to 99 °C.

As to `NC(=S)c1cccnc1N1CCNC(=O)C1`, the melting point lay in the range of 189 to 191 °C.

`COc1nc(C)cc(C)c1C#N`: the melting point was 96 to 98 °C.

As for `Nn1cnc2c(cnn2-c2ccccc2)c1=O`, the melting point lay within 233 to 235 °C.

For the compound `O=C1COc2cccc(F)c2N1`, the melting point was in the range of 172 to 174 °C.

On to `Cc1nc(O)c2cc(Br)ccc2n1`, for which the melting point lay in the range of 219 to 221 °C.
